# Data from ChEMBL document CHEMBL1126214, “Muscarinic agonist SAR of azaspirodioxolanes” (Bioorg Med Chem Lett, 1992).
# Key:
# [1] = target: T1, Muscarinic acetylcholine receptor M1 (Rattus norvegicus, UniProt P08482); assay: In vitro 100 nM cortex affinity to displace [3H]- -pirenzepine providing a measure of muscarinic m1 receptor antagonist affinity
# T1 sequence (P08482 whole entry): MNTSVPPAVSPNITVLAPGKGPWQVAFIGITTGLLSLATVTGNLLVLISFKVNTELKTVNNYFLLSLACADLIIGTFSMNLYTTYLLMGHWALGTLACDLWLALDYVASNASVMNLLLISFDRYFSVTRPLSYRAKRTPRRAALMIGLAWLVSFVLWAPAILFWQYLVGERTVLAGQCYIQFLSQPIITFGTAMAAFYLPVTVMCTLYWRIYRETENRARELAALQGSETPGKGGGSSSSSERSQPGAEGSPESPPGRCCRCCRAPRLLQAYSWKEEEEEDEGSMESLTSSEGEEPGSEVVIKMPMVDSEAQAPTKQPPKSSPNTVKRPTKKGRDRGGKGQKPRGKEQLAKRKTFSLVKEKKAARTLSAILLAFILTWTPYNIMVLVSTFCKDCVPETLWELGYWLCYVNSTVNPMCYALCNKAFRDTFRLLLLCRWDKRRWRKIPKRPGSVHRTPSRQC
# [2] = target: T2, Muscarinic acetylcholine receptor M1 (Rattus norvegicus) (UniProt P08482); conditions: Ileum
# T2 sequence (whole entry): T1 sequence (P08482 whole entry)
# [3] = target: T1, Muscarinic acetylcholine receptor M1; assay: In vitro 100 nM cortex affinity to displace [3H]- -CD providing a measure of muscarinic m1 receptor agonist affinity
# [4] = target: T2, Muscarinic acetylcholine receptor M1 (Rattus norvegicus)
# [5] = target: T1, Muscarinic acetylcholine receptor M1; assay: (§1) Compound was tested in vitro for its muscarinic m1 receptor agonist potency in the ileum model as a functional measure of peripheral muscarinic m1 receptor activity; type: tissue-based; conditions: read-out: pA2 (converted)
# [6] = target: T1, Muscarinic acetylcholine receptor M1; assay: Compound was tested in vitro for its efficacy in the ileum model as a functional measure of peripheral muscarinic m1 receptor activity; type: tissue-based; conditions: read-out: pA2 (converted)
# [7] = target: T2, Muscarinic acetylcholine receptor M1 (Rattus norvegicus); assay: Compound was tested in vitro for its muscarinic agonist potency in the ganglion model as a functional measure of central muscarinic m1 receptor activity
# [8] = target: T2, Muscarinic acetylcholine receptor M1 (Rattus norvegicus); assay: as §1; type: tissue-based
Ki [1] [nM],Ki [3] [nM],pD2 [4],Kb [6] [nM],pD2 [8],Structure (SMILES),pD2 [2],Kb [5] [nM],pD2 [7]
2650,185,6.1,–,–,CC1OC2(CCN(C)CC2)CS1 (centres undefined),6,–,–
1250,515,5.7,–,–,C[C@@H]1OC2(CS1)CN1CCC2CC1 (some centres undefined),5.4,–,–
5000,210,6.1,–,–,CC1OCC2(CC[N+](C)(C)CC2)O1 (centres undefined),5.2,–,–
1320,745,5.5,–,–,CCC1OCC2(CCN(C)CC2)O1 (centres undefined),5,–,–
0.6,8.1,–,6.31,–,CN1CCC2(CC1)COC(c1ccccc1)(c1ccccc1)O2,–,10,–
4050,175,6.2,–,–,CC1C(=O)CC2(CCN(C)CC2)C1=O (centres undefined),5.5,–,–
765,87,6.7,–,–,CCC1C(=O)CC2(CCN(C)CC2)C1=O (centres undefined),6.1,–,–
430,105,6.1,–,–,C[C@H]1OC2(CS1)CN1CCC2CC1 (some centres undefined),4.9,–,–
2100,530,5,–,–,CC1SCC2(CCN(C)CC2)S1 (centres undefined),4.9,–,–
–,–,–,–,–,C[C@@H]1OCC2(CCN(C)C2)O1 (stereo in doubt; trans) [listing 1 of 2 here],4.5,–,–
> 10000,870,5.5,–,–,COC1OCC2(CCN(C)CC2)O1 (centres undefined),4.7,–,–
3160,720,5.6,–,–,CC1OCC2(CCN(C)CC2)S1 (centres undefined),5.1,–,–
> 10000,145,5.9,–,–,CC1OCC2(CCNCC2)O1 (centres undefined),5.1,–,–
> 10000,> 10000,< 4,–,< 4,CN1CCC2(CC1)COC(C)(C)O2,–,–,–
> 10000,1200,–,–,–,CN1CCC2(CC1)COCO2,4.6,–,4.6

Structure (SMILES),Ki [1] [nM],Ki [3] [nM],pD2 [4],Kb [6] [nM],pD2 [8],pD2 [2],Kb [5] [nM],pD2 [7]
C[C@@H]1OCC2(CN3CCC2C3)O1 (some centres undefined),6400,180,5.7,–,–,5.5,–,–
C[C@@H]1O[C@H](C[N+](C)(C)C)C[C@H]1O,–,–,7.4,–,–,6.8,–,–
C[C@H]1OCC2(CN3CCC2C3)O1 (some centres undefined),> 10000,1850,4.4,–,–,4.1,–,–
C[C@@H]1OCC2(CCN(C)C2)S1 (some centres undefined),> 10000,9150,–,–,–,–,–,–
CC1OCC2(CCCN(C)C2)O1 (centres undefined),–,–,< 4,–,–,< 4,–,–
CN1CCC2(CC1)COC(c1ccccc1)O2 (centres undefined),620,2800,–,–,–,–,5010,–
C[C@H]1OC2(CCN(C)C2)CS1 (some centres undefined),6700,585,5.7,–,–,5.2,–,–
C[C@H]1OC[C@@H](C[N+](C)(C)C)O1,2100,6.4,7.8,–,–,7.5,–,–
C[C@@H]1OCC2(CCN(C)C2)O1 (stereo in doubt; cis) [listing 1 of 2 here],–,–,5.6,–,–,5.2,–,–
C[C@@H]1OCC2(CCN(C)C2)O1 (stereo in doubt; cis) [listing 2 of 2 here],> 10000,550,–,–,–,–,–,–
CC1OC[C@@]2(CN3CCC2C3)O1 (some centres undefined),1950,30,–,–,–,5.9,–,6.5
C[C@@H]1OCC2(CN3CCC2CC3)O1 (some centres undefined),1570,90,6,–,–,4.8,–,–
C[C@@H]1OCC2(CCN(C)C2)O1 (stereo in doubt; trans) [listing 2 of 2 here],> 10000,1750,–,–,–,–,–,–
C#CC1OCC2(CCN(C)CC2)O1 (centres undefined),3000,295,5.9,–,–,5.2,–,–
CC[C@H](C)[C@@H]1NC(=O)[C@H](CCCN=C(N)N)NC(=O)[C@@H](CC(=O)O)NC(=O)[C@H]([C@@H](C)CC)NC(=O)[C@@H](CCCN=C(N)N)NC(=O)CNC(=O)CNC(=O)[C@@H](Cc2ccccc2)NC(=O)[C@H](C)NC(=O)[C@@H](NC(=O)[C@H](CO)NC(=O)[C@@H](N)CO)CSSC[C@@H](C(=O)N2C[C@H](C(=O)N[C@H](CCCN=C(N)N)C(=O)O)Cc3ccccc32)NC1=O,–,–,< 4,–,–,4.1,–,–
CN1CCC2(CC1)COC(C(Cl)(Cl)Cl)O2 (centres undefined),200,960,–,–,–,–,–,–
